Tests used:
[1] = tested on: Mycobacterium tuberculosis; parameters: species or system C57BL6 mice; details: mouse, in vivo
[2] = tested on: Mycobacterium tuberculosis
tuberculosis = details: intranasal; Antonelli et al., J. Clin. Investigation 2010; cited from earlier work

CC(c1cc2ccccc2s1)N(O)C(N)=O (centres unmarked) [zileuton]
colony forming units (CFU) in lungs [1]: approximately 7.6 log^10 CFU

poly-ICLC
mice that survived past day 53 post-infection ([2]; M. tuberculosis-infected B6 mice treated with poly-ICLC alone, five mice): None
mean weight as % of starting weight ([2]; M. tuberculosis-infected B6 mice, after 31 days, treated with intranasal poly-ICLC twice weekly): approximately 74%
effect on tuberculosis in mice (tuberculosis): exacerbate tuberculosis
colony forming units (CFU) in lungs [1]: approximately 8.9 log^10 CFU

— patent publication US20140171445A1, “TREATMENT AND PREVENTION OF DISEASES MEDIATED BY MICROORGANISMS VIA DRUG-MEDIATED MANIPULATION OF THE EICOSANOID BALANCE” (priority 2011, published 2014)
